# Values joined by “and” are separate entries in the source; they are usually repeats but may differ in a detail not shown here. Identical values can stand only once.
# Assay: solvent given as SMILES
structure (smiles),measurement,setting,value
FC(F)(F)c1ccc(C2=CC3=c4cc(-c5ccc(C(F)(F)F)cc5)c5nc(C(F)(F)C(F)(F)C(F)(F)F)nc6c(-c7ccc(C(F)(F)F)cc7)cc(c4c65)C4=CC(c5ccc(C(F)(F)F)cc5)=C5N=C(C(F)(F)C(F)(F)C(F)(F)F)N=C2C5C43)cc1 (stereo unspecified),emission maximum,in C1CCOC1,512 nm
CC(C)(C)c1cc2ccc3c(-c4ccc(N(c5ccccc5)c5ccccc5)cc4)ccc4c5nc6cc(C#N)c(C#N)cc6nc5c(c1)c2c34,emission maximum,in C1CCOC1,839.18 nm
same,emission maximum,in CCCCCC,575.31 nm
same,emission maximum,in Cc1ccccc1,613 nm
same,emission maximum,in ClC(Cl)Cl,784.69 nm
same,emission maximum,in ClCCl,839.18 nm
CC(=O)c1ccc2ccc3c(NCCC(=O)NCCCCCCc4nc5c(=O)[nH]c(N)nc5n4[C@H]4C[C@H](O)[C@@H](CO)O4)ccc4ccc1c2c43,emission maximum,in C1CCOC1,523 nm
same,emission maximum,in CC#N,546 nm
same,emission maximum,in CC(C)O,557 nm
same,emission maximum,in CCO,559 nm
same,emission maximum,in CN(C)C=O,543 nm
same,emission maximum,in CO,565 nm
same,emission maximum,in CS(C)=O,551 nm
same,emission maximum,in O,573 nm
same,emission maximum,in OCC(O)CO,567 nm
O=c1cc2c(S(=O)(=O)O)c(O)c3cccc4ccc(o1)c2c43,emission maximum,in CC1CCCO1,472 nm
Cc1ccc(/C2=c3\cc/c(o3)=C(\c3ccc(C)cc3)c3ccc([nH]3)-c3ccc4n3[P-](=O)(=O)[N+]3=C(C=CC3=C4c3ccc[nH]3)c3ccc2[nH]3)cc1,emission maximum,in ClC(Cl)Cl,740 nm
F[B-]1(F)OC(c2ccc(C(F)(F)F)cc2)=Cc2c3ccccc3cc[n+]21,emission maximum,in ClC(Cl)Cl,464.6 nm
C(=C(c1ccccc1)c1ccccc1)c1ccc(C=C(c2ccccc2)c2ccccc2)cc1,emission maximum,in C1CCOC1,461 nm
N#Cc1c(N2CCCCC2)cc(-c2ccc(-c3ccccc3)s2)c2c1CCc1ccccc1-2,emission maximum,in C1CCOC1,515 nm
CCC1(CC)c2cc(C=O)ccc2-c2ccc(N(C)C)cc21,emission maximum,in C1CCCCC1,416 nm
same,emission maximum,in CC#N,521 nm
same,emission maximum,in CCO,562 nm
same,emission maximum,in CCOCC,436 nm
same,emission maximum,in CS(C)=O,532 nm
same,emission maximum,in ClCCl,491 nm
same,emission maximum,in c1ccccc1,437 nm
CC(C)[Si](C#Cc1c2nc3ccccc3nc2c(C#C[Si](C(C)C)(C(C)C)C(C)C)c2nc3c4ccccc4c(=O)c4ccccc4c3nc12)(C(C)C)C(C)C,emission maximum,in ClCCl,627 nm
O=c1oc2ccccc2cc1-c1ccc([N+](=O)[O-])cc1,emission maximum,in C1CCOC1,421 nm
same,emission maximum,in CC#N,409 nm
same,emission maximum,in CS(C)=O,425 nm
same,emission maximum,in ClC(Cl)Cl,400 nm
Cc1cc2ccc(-c3cccc4cccc(-c5ccc6cc(C)c(=O)oc6c5)c34)cc2oc1=O,emission maximum,in C1CCCCC1,392 nm
same,emission maximum,in C1COCCO1,399 nm
same,emission maximum,in CC#N,420 nm
same,emission maximum,in CCO,442 nm
same,emission maximum,in CCOC(C)=O,403 nm
same,emission maximum,in CN(C)C=O,417 nm
same,emission maximum,in CO,452 nm
same,emission maximum,in c1ccccc1,398 nm
COc1cc2c(cc1-c1ccc(C#N)cc1)Cc1c3c(c4c(c1-2)-c1cc(OC)c(-c2ccc(C#N)cc2)cc1C4)C(=O)N(CCC(C)C)C3=O,emission maximum,in C1CCOC1,460 nm
Nc1ccc2c(c1)NC(=O)CC(=O)N2,emission maximum,in CS(C)=O,385 nm
c1ccc2c(c1)Cc1ccccc1N2c1c2ccccc2cc2ccccc12,emission maximum,in Cc1ccccc1,535 nm
CC[N+]1(CC)CN2C(C)=CC(C)=C(C(=O)[O-])C2=N1,emission maximum,in CN(C)C=O,453 nm
same,emission maximum,in O,449 nm
Cc1ccc2cc3c(=O)n(C)c(=O)n(C)c3nc2c1,emission maximum,in CC#N,405 nm
same,emission maximum,in CC(C)O,408 nm
same,emission maximum,in CCO,409 nm
same,emission maximum,in CO,409 nm
same,emission maximum,in ClC(Cl)Cl,406 nm
same,emission maximum,in ClCCl,405 nm
COc1ccc(-c2nc3c([nH]2)C2=CC(=O)S[C@]2(C)[C@@]2(C)SC(=O)C=C32)cc1,emission maximum,in CC#N,533 nm
COc1ccc(C#Cc2cc(C#Cc3ccc(OC)cc3)c(C#Cc3ccc(OC)cc3)c(C#Cc3ccc(OC)cc3)c2C#Cc2ccc(OC)cc2)cc1,emission maximum,in ClCCl,437 nm
Cc1ccc(C)n1-c1ccc(N(C)C)cc1,emission maximum,in CC#N,360 nm
same,emission maximum,in CCCCCC,347 nm
COc1ccc(N2c3cc(OC)ccc3N=c3cc4c(cc32)=Nc2cc(C(C)(C)C)cc(C(C)(C)C)c2O4)cc1,emission maximum,in CC#N,624 nm
same,emission maximum,in CCCCCC,587 nm
same,emission maximum,in CO,633 nm
CC1(C)c2ccccc2N(c2ccc3nc4c5ccc(N6c7ccccc7C(C)(C)c7ccccc76)cc5c5cc(N6c7ccccc7C(C)(C)c7ccccc76)ccc5c4nc3c2)c2ccccc21,emission maximum,in Cc1ccccc1,605 nm
same,emission maximum,in c1cc(-c2cccc(-n3c4ccccc4c4ccccc43)c2)cc(-n2c3ccccc3c3ccccc32)c1,590 nm
CCN(CC)c1ccc2c(C)cc(=O)oc2c1,emission maximum,in C1CCCCC1,395 nm
same,emission maximum,in CC#N,430 nm
same,emission maximum,in CCCCCCCCO,443 nm
same,emission maximum,in CCCCCCO,444 nm
same,emission maximum,in CCCCO,447 nm
same,emission maximum,in CCCO,452 nm
same,emission maximum,in CCO,454 nm and 451 nm
same,emission maximum,in CCOC(C)=O,416 nm
same,emission maximum,in CO,462 nm
same,emission maximum,in O,470 nm
same,emission maximum,in OCC(O)CO,463 nm
CCCCCCCCOc1ccc(-c2c3c4n(c(-c5ccc(OCCCCCCCC)cc5)c3c3n2[B-](F)(F)[n+]2c(sc5ccccc52)N=3)[B-](F)(F)[n+]2c(sc3ccccc32)N=4)cc1,emission maximum,in ClC(Cl)Cl,676 nm
Cc1cc(C)c(B(c2c(C)cc(C)cc2C)c2cc3ccc4ccccc4c3c3c2ccc2ccccc23)c(C)c1,emission maximum,in C1CCCCC1,436 nm
same,emission maximum,in C1CCOC1,446 nm
same,emission maximum,in CC#N,449 nm
same,emission maximum,in ClC(Cl)Cl,443 nm
same,emission maximum,in c1ccccc1,444 nm
CCn1c2ccccc2c2ccc(C#N)cc21,emission maximum,in C1CCCCC1,373 nm
CN(C)c1ccc(/C=C/c2ccc(C#N)cc2)cc1,emission maximum,in C1CCOC1,499 nm
same,emission maximum,in CC#N,530 nm
same,emission maximum,in CCCC#N,522 nm
same,emission maximum,in CCCCCC,415 nm
same,emission maximum,in CCCCOCCCC,453 nm
same,emission maximum,in CCO,524 nm
same,emission maximum,in CCOCC,475 nm
N#CC(C#N)=Cc1ccc(-c2ccc(N(c3ccccc3)c3ccccc3)cc2)s1,emission maximum,in ClC(Cl)Cl,634 nm
Cc1cccc(C)c1N1C(c2ccccc2)=Cc2ccc3ccccc3[n+]2[B-]1(F)F,emission maximum,in ClCCl,468 nm
CCC1=C(C)C2=Cc3c4ccccc4c4n3[B-](c3ccc(OC)cc3)(Oc3ccccc3-4)[N+]2=C1C (stereo unspecified),emission maximum,in CC#N,634 nm
same,emission maximum,in CCCCCC,635 nm
same,emission maximum,in Cc1ccccc1,641 nm
same,emission maximum,in ClCCl,639 nm
CC(=O)c1c(N[C@@H](CS)C(=O)O)c2ccc(N(C)C)cc2oc1=O,emission maximum,in ClCCl,424 nm
Cc1c2ccc(=[N+]3CCCCC3)cc-2oc2cc(N3CCCCC3)ccc12,emission maximum,in ClCCl,570 nm
CC(C)(C)c1cc(-c2ccc3c(-c4cc(C(C)(C)C)cc(C(C)(C)C)c4)cc4c5cc(-c6cc(C(C)(C)C)cc(C(C)(C)C)c6)ccc5c(-c5cc(C(C)(C)C)cc(C(C)(C)C)c5)cc4c3c2)cc(C(C)(C)C)c1,emission maximum,in ClCCl,401 nm
CCCN1c2ccccc2Sc2cc(/C=C\c3cc(=O)oc4cc(C)ccc34)ccc21,emission maximum,in ClC(Cl)Cl,631 nm
ClC(Cl)=C1c2ccccc2C(C2(Cl)c3ccccc3C(=C(Cl)Cl)c3ccccc32)c2ccccc21 (stereo unspecified),emission maximum,in C1CCCCC1,425.81 nm
same,emission maximum,in CCCCCO,442.64 nm
same,emission maximum,in CCCCO,446.26 nm
same,emission maximum,in CCCO,443.26 nm
same,emission maximum,in CCO,447.14 nm
same,emission maximum,in CO,449.43 nm
CCN(CC)c1ccc(/C=C/C2=[O+][B-](F)(F)Oc3c2c(=O)oc2cc(N(CC)CC)ccc32)cc1,emission maximum,in C1CCCCC1,556 nm
same,emission maximum,in C1COCCO1,610 nm
same,emission maximum,in CC#N,644 nm
same,emission maximum,in CC(C)=O,636 nm
same,emission maximum,in CCO,635 nm
same,emission maximum,in CCOC(C)=O,617 nm
same,emission maximum,in CO,637 nm
same,emission maximum,in CS(C)=O,659 nm
same,emission maximum,in Cc1ccccc1,597 nm
same,emission maximum,in ClC(Cl)Cl,622 nm
same,emission maximum,in ClCCl,634 nm
same,emission maximum,in OCC(O)CO,654 nm
same,emission maximum,in OCCO,653 nm
CCCCCCOc1ccc(N(c2ccc(OCCCCCC)cc2)c2ccc(-c3sc(-c4ccc(N(c5ccc(OCCCCCC)cc5)c5ccc(OCCCCCC)cc5)cc4)c4nc(-c5ccccc5)c(-c5ccccc5)nc34)cc2)cc1,emission maximum,in C1CCOC1,770 nm
same,emission maximum,in CC(C)=O,793 nm
same,emission maximum,in CCOC(C)=O,768 nm
same,emission maximum,in CCOCC,751 nm
same,emission maximum,in CN(C)C=O,806 nm
same,emission maximum,in Cc1ccccc1,748 nm
same,emission maximum,in ClC(Cl)Cl,777 nm
same,emission maximum,in ClCCl,793 nm
F[B-]12Oc3ccccc3-c3c4[n+]5c(c([n+]31)-c1ccccc1O2)-c1ccccc1O[B-]5(F)Oc1ccccc1-4,emission maximum,in ClCCl,623 nm
COC(=O)C(NC(=O)OC(C)(C)C)c1ccc2oc(-c3ccc(OC(=O)c4ccccc4)cc3O)nc2c1 (stereo unspecified),emission maximum,in CC1CCCCC1,480 nm
same,emission maximum,in CC#N,471 nm
same,emission maximum,in CO,405 nm
COc1ccc2c3c(c4ccc(OC)cc4c2c1)C(C)(C)c1cc(-c2ccccc2)ccc1-3,emission maximum,in C1CCCCC1,392 nm
CCCCNC(=O)c1nc2c(N(C)C)nc(N(C)C)nc2n1Cc1ccccc1,emission maximum,in C1COCCO1,392 nm
same,emission maximum,in CC#N,405 nm
same,emission maximum,in CO,424 nm
same,emission maximum,in ClCCl,402 nm
CC(C)(C)c1cc2c3cc(C(C)(C)C)c(-c4cc5cc6c7cccc8cccc(c9cc(C(C)(C)C)cc(c5cc4C(C)(C)C)c96)c87)cc3cc3c4cccc5cccc(c(c1)c23)c54,emission maximum,in CC1CCCCC1,454 nm
c1ccc(-c2nc3ccccc3nc2-c2ccc(-n3c4ccccc4c4ccccc43)cc2)cc1,emission maximum,in Cc1ccccc1,434 nm
COc1ccc(C2=C(c3ccc(OC)cc3)c3cccc4c5c(cc(c34)O2)=NC2C=C(Br)C(Br)=CC2N=5)cc1 (stereo unspecified),emission maximum,in ClCCl,609 nm
CCCCCn1c2ccc(S(=O)(=O)O)cc2c(=O)c2cc(S(=O)(=O)O)ccc21,emission maximum,in CS(C)=O,421 nm
same,emission maximum,in O,431 nm
Cc1nc2c(ccc3c2sc(/C=C/c2ccc(N(C)C)cc2)[n+]3C)s1,emission maximum,in CO,600 nm
same,emission maximum,in ClC(Cl)Cl,603 nm
CC(C)(C)c1ccc2c(c1)c1cc(C(C)(C)C)ccc1n2-c1cccs1,emission maximum,in ClCCl,368 nm
Cc1cc(N2c3ccccc3C(C)(C)c3ccccc32)ccc1-c1ncnc(-c2ccc(N3c4ccccc4C(C)(C)c4ccccc43)cc2C)c1C,emission maximum,in Cc1ccccc1,454 nm
same,emission maximum,in O=P(c1ccccc1)(c1ccccc1)c1ccccc1Oc1ccccc1P(=O)(c1ccccc1)c1ccccc1,454 nm

# From the Deep4Chem optical property database
